target: purified recombinant human BTK protein (Homo sapiens (Human), UniProt Q06187); assay: Measurement of BTK inhibitory activity (in vitro); format: biochemical; details: FL-PEPTIDE 2 substrate 1 μM, ATP 45 μM, 40 minutes at 25° C.
Source text: With regard to the setting of the conditions for a method for measuring the inhibitory activity of a compound against BTK kinase activity in vitro, it is described in the consumable reagent supplies price list for LabChip (registered trademark) series of PerkinElmer, Inc. that FL-PEPTIDE 2 corresponds to a substrate peptide for the measurement of BTK kinase activity. Therefore, FL-PEPTIDE 2 was used as a substrate. The purified recombinant human BTK protein used in the test was purchased from Carna Biosciences, Inc.
With regard to the measurement of the inhibitory activity of the compounds, firstly, the compounds of the present invention were diluted stepwise with dimethyl sulfoxide (DMSO). Subsequently, BTK protein, a substrate peptide (final concentration was 1 μM), magnesium chloride (final concentration was 10 mM), ATP (final concentration was 45 μM), and a DMSO solution of the compounds of the present invention (final concentration of DMSO was 5%) were added to a buffer solution for kinase reaction (20 mM HEPES (pH 7.5), 2 mM dithiotheitol, 0.01% Triton X-100), and after the solution was incubated for 40 minutes at 25° C., a kinase reaction was carried out. The reaction was terminated by adding EDTA thereto in order to obtain a final concentration of 30 mM. Finally, a substrate peptide that was not phosphorylated (S) and a phosphorylated peptide (P) were separated and detected by microchannel capillary electrophoresis using a LabChip EZ Reader II (PerkinElmer, Inc.).

purified recombinant human BTK protein, sequence (Q06187 whole entry): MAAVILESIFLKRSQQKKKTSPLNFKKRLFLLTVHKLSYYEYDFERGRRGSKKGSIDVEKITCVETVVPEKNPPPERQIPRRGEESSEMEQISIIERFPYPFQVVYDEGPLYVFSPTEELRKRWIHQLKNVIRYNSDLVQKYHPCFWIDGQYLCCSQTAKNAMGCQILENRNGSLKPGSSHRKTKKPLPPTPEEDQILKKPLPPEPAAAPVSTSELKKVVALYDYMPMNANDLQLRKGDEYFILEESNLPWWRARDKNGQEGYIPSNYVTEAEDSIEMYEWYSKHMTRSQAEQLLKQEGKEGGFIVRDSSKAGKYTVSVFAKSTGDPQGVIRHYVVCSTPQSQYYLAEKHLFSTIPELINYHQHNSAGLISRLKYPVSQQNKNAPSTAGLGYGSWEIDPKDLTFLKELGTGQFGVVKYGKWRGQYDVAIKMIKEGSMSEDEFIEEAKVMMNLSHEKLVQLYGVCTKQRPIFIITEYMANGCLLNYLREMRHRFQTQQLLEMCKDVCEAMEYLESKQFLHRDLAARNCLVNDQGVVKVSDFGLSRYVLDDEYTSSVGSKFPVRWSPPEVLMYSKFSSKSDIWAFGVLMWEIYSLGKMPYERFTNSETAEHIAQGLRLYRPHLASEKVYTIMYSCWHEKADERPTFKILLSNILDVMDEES

| IC50 [nM] | SMILES |
| --- | --- |
| 0.443 | C=CC(=O)N1CCC[C@@H](n2nc(C(=O)Nc3nc4cc(-c5cccs5)ccc4o3)c3c(N)ncnc32)C1 [Example 3, (R)-1-(1-acryloylpiperidin-3-yl)-4-amino-N-(5-(thiophen-2-yl)benzo[d]oxazol-2-yl)-1H-pyrazolo[3,4-d]pyrimidine-3-carboxamide] |
| 0.799 | C=CC(=O)N1CC[C@@H](n2cc(C(=O)Nc3nc4cc(-c5ccccc5)ccc4o3)c3c(N)ncnc32)C1 [Example 55, (R)-7-(1-acryloylpyrrolidin-3-yl)-4-amino-N-(5-phenylbenzo[d]oxazol-2-yl)-7H-pyrrolo[2,3-d]pyrimidine-5-carboxamide] |
| 0.546 | C=CC(=O)N1CC[C@@H](n2nc(C(=O)Nc3nc4cc(C(F)(F)F)ccc4o3)c3c(N)ncnc32)C1 [Example 43, (R)-1-(1-acryloylpyrrolidin-3-yl)-4-amino-N-(5-(trifluoromethyl)benzo[d]oxazol-2-yl)-1H-pyrazolo[3,4-d]pyrimidine-3-carboxamide] |
| 0.887 | CCN(C)C/C=C/C(=O)N1CC[C@@H](n2nc(C(=O)Nc3nc4cc(Cl)ccc4o3)c3c(N)ncnc32)C1 [Example 33, (R,E)-4-amino-N-(5-chlorobenzo[d]oxazol-2-yl)-1-(1-(4-(ethyl(methyl)amino)but-2-enoyl)pyrrolidin-3-yl)-1H-pyrazolo[3,4-d]pyrimidine-3-carboxamide] |
| 79 | C=CC(=O)N1CC[C@H](n2nc(C(=O)Nc3nc4ccccc4o3)c3c(N)ncnc32)C1 [Example 65, (S)-1-(1-acryloylpyrrolidin-3-yl)-4-amino-N-(benzo[d]oxazol-2-yl)-1H-pyrazolo[3,4-d]pyrimidine-3-carboxamide] |
| 1.67 | C=CC(=O)N1CC[C@@H](n2nc(C(=O)Nc3nc4cc(-c5ccc(Cl)cc5)ccc4o3)c3c(N)ncnc32)C1 [Example 31, (R)-1-(1-acryloylpyrrolidin-3-yl)-4-amino-N-(5-(4-chlorophenyl)benzo[d]oxazol-2-yl)-1H-pyrazolo[3,4-d]pyrimidine-3-carboxamide] |
| 31.4 | CC1=CC(C)=[N+]2C1=Cc1ccc(CCC(=O)NCCN3CCN(C/C=C/C(=O)N4CCC[C@@H](n5nc(C(=O)Nc6nc7ccccc7o6)c6c(N)ncnc65)C4)CC3)n1[B-]2(F)F [Example P-1, (R,E)-7-(3-((2-(4-(4-(3-(4-amino-3-(benzo[d]oxazol-2-ylcarbamoyl)-1H-pyrazolo[3,4-d]pyrimidin-1-yl)piperidin-1-yl)-4-oxobut-2-en-1-yl)piperazin-1-yl)ethyl)amino)-3-oxopropyl) 5,5-difluoro-1,3-dimethyl-5H-dipyrrolo[1,2-c:2′,1′-f][1,3,2]diazaborinin-4-ium-5-uide] |
| 1.84 | CCN(CC)C/C=C/C(=O)N1CC[C@@H](n2cc(C(=O)Nc3nc4cc(-c5ccccc5)ccc4o3)c3c(N)ncnc32)C1 [Example 58, (R,E)-4-amino-N-(5-phenylbenzo[d]oxazol-2-yl)-7-(1-(4-(diethylamino)but-2-enoyl)pyrrolidin-3-yl) 7H-pyrrolo[2,3-d]pyrimidine-5-carboxamide] |

| SMILES | IC50 [nM] |
| --- | --- |
| C=CC(=O)N1CCC[C@@H](n2nc(C(=O)Nc3nc4cccc(Cl)c4o3)c3c(N)ncnc32)C1 [Example 64, (R)-1-(1-acryloylpiperidin-3-yl)-4-amino-N-(7-chlorobenzo[d]oxazol-2-yl)-1H-pyrazolo[3,4-d]pyrimidine-3-carboxamide] | 8.09 |
| C=CC(=O)N1CCC(n2nc(C(=O)Nc3nc4ccccc4o3)c3c(N)ncnc32)CC1 [Example 69, 1-(1-acryloylpiperidin-4-yl)-4-amino-N-(benzo[d]oxazol-2-yl)-1H-pyrazolo[3,4-d]pyrimidine-3-carboxamide] | 162 |
| C=CC(=O)N1CCC(Cn2nc(C(=O)Nc3nc4ccccc4o3)c3c(N)ncnc32)C1 (stereo not drawn) [Example 66, 1-((1-acryloylpyrrolidin-3-yl)methyl)-4-amino-N-(benzo[d]oxazol-2-yl)-1H-pyrazolo[3,4-d]pyrimidine-3-carboxamide] | 17 |
| C=CC(=O)N1CC(n2nc(C(=O)Nc3nc4ccccc4o3)c3c(N)ncnc32)C1 [Example 74, 1-(1-acryloylazetidin-3-yl)-4-amino-N-(benzo[d]oxazol-2-yl)-1H-pyrazolo[3,4-d]pyrimidine-3-carboxamide] | 21.4 |
| C=CC(=O)N1CCC[C@@H](n2nc(C(=O)Nc3nc4c(C)cccc4o3)c3c(N)ncnc32)C1 [Example 10, (R)-1-(1-acryloylpiperidin-3-yl)-4-amino-N-(4-methylbenzo[d]oxazol-2-yl)-1H-pyrazolo[3,4-d]pyrimidine-3-carboxamide] | 2.38 |
| Nc1ncnc2c1c(C(=O)Nc1nc3ccccc3o1)nn2[C@@H]1CCCN(C(=O)/C=C/CN2CCN(CCNC(=O)CCCC[C@@H]3SC[C@@H]4NC(=O)N[C@@H]43)CC2)C1 [Example P-2, 4-amino-N-(benzo[d]oxazol-2-yl)-1-((R)-1-((E)-4-(4-(2-(5-((3aS,4S,6aR)-2-oxohexahydro-1H-thieno[3,4-d]imidazol-4-yl)pentanamido)ethyl)piperazin-1-yl)but-2-enoyl)piperidin-3-yl)-1H-pyrazolo[3,4-d]pyrimidine-3-carboxamide] | 43.9 |

system: A431 cells / TMD8 cells; assay: Proliferation inhibitory activity against cell lines expressing BTK and EGFR (in vitro), comparison of selectivity; format: cell-based, human; details: ratio from GI50 (nM), 3 days culture, CELLTITER GLO
Source text: TMD8 cells, which are of a diffuse large B-cell lymphoma cell line expressing BTK, were suspended in RPMI1640 medium (manufactured by Life Technologies Corp.) containing 10% fetal bovine serum. A431 cells, which are of an EGFR-overexpressing, highly activated human epidermoid carcinoma cell line, were suspended in DMEM, high glucose medium (manufactured by Life Technologies Corp.) containing 10% fetal bovine serum. The cell suspensions were inoculated into each well of 384-well flat-bottomed microplates, and the cells were cultured for 1 day at 37° C. in an incubator containing 5% carbon dioxide gas. […] A DMSO solution of the test compounds was diluted with the medium used in the suspension of the each cells, and this was added to each of the wells of the cell culture plates such that the final concentration of DMSO would be 0.2%. The cells were further cultured for 3 days at 37° C. in an incubator containing 5% carbon dioxide gas. […] Proliferation inhibition ratio (%)=(C−T)/(C−C0)×100
T: Luminescence intensity of a well in which the test compound was added
C: Luminescence intensity of a well in which the test compound was not added
C0: Luminescence intensity of a well measured before the addition of the test compound
When a comparison is made between the cell proliferation inhibitory activity against A431 cells that depends on the EGFR proliferation signaling and the cell proliferation inhibitory activity against TMD8 cells that depends on the BTK proliferation signaling, the influence of the respective kinases at a cellular level is able to be evaluated. That is, when the “A431 cell proliferation inhibition ratio/TMD8 cell proliferation inhibition ratio” is calculated, it is contemplated that as the value of the ratio is larger, the selectivity to BTK over EGFR in the cells is higher.

| SMILES | A431 cell proliferation inhibition ratio/TMD8 cell proliferation inhibitio ratio |
| --- | --- |
| C/C=C/C(=O)N1CCC[C@@H](n2nc(C(=O)Nc3nc4ccccc4o3)c3c(N)ncnc32)C1 [Example 14, (R,E)-4-amino-N-(benzo[d]oxazol-2-yl)-1-(1-(but-2-enoyl)piperidin-3-yl)-1H-pyrazolo[3,4-d]pyrimidine-3-carboxamide] | >1400.6 |
| CN(C)C/C=C/C(=O)N1CCC[C@@H](n2nc(C(=O)Nc3nc4cc(-c5cccs5)ccc4o3)c3c(N)ncnc32)C1 [Example 21, (R,E)-4-amino-N-(5-(thiophen-2-yl)benzo[d]oxazol-2-yl)-1-(1-(4-(dimethylamino)but-2-enoyl)piperidin-3-yl)-1H-pyrazolo[3,4-d]pyrimidine-3-carboxamide] | 4909.1 |
| C=CC(=O)N1CCC[C@@H](n2nc(C(=O)Nc3nc4cc(CCOC)ccc4o3)c3c(N)ncnc32)C1 [Example 8, (R)-1-(1-acryloylpiperidin-3-yl)-4-amino-N-(5-(2-methoxyethyl)benzo[d]oxazol-2-yl)-1H-pyrazolo[3,4-d]pyrimidine-3-carboxamide] | 25303.8 |
| C=CC(=O)N1CCC(Cn2nc(C(=O)Nc3nc4ccccc4o3)c3c(N)ncnc32)C1 (stereo not drawn) [Example 66, 1-((1-acryloylpyrrolidin-3-yl)methyl)-4-amino-N-(benzo[d]oxazol-2-yl)-1H-pyrazolo[3,4-d]pyrimidine-3-carboxamide] | >1205.7 |
| C=CC(=O)N1CCC(n2nc(C(=O)Nc3nc4cc(Cl)ccc4o3)c3c(N)ncnc32)C1 (stereo not drawn) [Example 84, 1-(1-acryloylpyrrolidin-3-yl)-4-amino-N-(5-chlorobenzo[d]oxazol-2-yl)-1H-pyrazolo[3,4-d]pyrimidine-3-carboxamide] | >7132.7 |
| C=CC(=O)N1CCC[C@@H](n2nc(C(=O)Nc3nc4cc(OC)ccc4o3)c3c(N)ncnc32)C1 [Example 7, (R)-1-(1-acryloylpiperidin-3-yl)-4-amino-N-(5-methoxybenzo[d]oxazol-2-yl)-1H-pyrazolo[3,4-d]pyrimidine-3-carboxamide] | 5440.9 |
| C=CC(=O)N1CCC[C@@H](n2nc(C(=O)Nc3nc4c(C)cccc4o3)c3c(N)ncnc32)C1 [Example 10, (R)-1-(1-acryloylpiperidin-3-yl)-4-amino-N-(4-methylbenzo[d]oxazol-2-yl)-1H-pyrazolo[3,4-d]pyrimidine-3-carboxamide] | 5860.5 |
| C=CC(=O)N1CC[C@@H](n2nc(C(=O)Nc3nc4cc(OC)ccc4o3)c3c(N)ncnc32)C1 [Example 38, (R)-1-(1-acryloylpyrrolidin-3-yl)-4-amino-N-(5-methoxybenzo[d]oxazol-2-yl)-1H-pyrazolo[3,4-d]pyrimidine-3-carboxamide] | 2868.1 |
| C=CC(=O)N1CC[C@@H](n2nc(C(=O)Nc3nc4ccccc4o3)c3c(N)ncnc32)C1 [Example 27, (R)-1-(1-acryloylpyrrolidin-3-yl)-4-amino-N-(benzo[d]oxazol-2-yl)-1H-pyrazolo[3,4-d]pyrimidine-3-carboxamide] | 4155.9 |
| C=CC(=O)N1CC[C@@H](n2nc(C(=O)Nc3nc4cc(-c5ccccc5)ccc4o3)c3c(N)ncnc32)C1 [Example 41, (R)-1-(1-acryloylpyrrolidin-3-yl)-4-amino-N-(5-phenylbenzo[d]oxazol-2-yl)-1H-pyrazolo[3,4-d]pyrimidine-3-carboxamide] | 1667.7 |
